In patent US11578087B2, “Oxaborole esters and uses thereof” (priority 2016, dated 2023) one finds IC50 data, which are given here for 28 molecules.

Test [1] has as its system IL3000 T. congolense (drug sensitive) strain. Kind of test: In vitro Alamar Blue 72 h drug sensitivity assay for T. congolense. In kind it is cell-based, Trypanosoma congolense. The note with it: Trypanosoma congolense, 72 h, bloodstream form, 69 h + 3 h Resazurin, 34° C., read-out: IC50: I Org. Growth T. congolense 3 d. Put shortly:
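IC50 values derive from 11-point curves averaged over at least three independent runs, with fluorescence read at 536 nm excitation and 588 nm emission. Resazurin was added for a final 3 h after 69 h compound exposure of bloodstream forms (HMI medium, 20% bovine serum, 34° C, 5% CO2).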

For test [2], the system named is T. cruzi amastigote (Td Tomato-modified) in Vero cells. As to the kind of experiment: In vitro IC50 measurement of T. cruzi amastigote killing using Td Tomato-modified T. cruzi. In kind it is cell-based. The note with it: Trypanosoma cruzi, 72 h, fluorescence, read-out: IC50: I Org. amastigote Growth T. cruzi 3 d. Put shortly: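 IC50/IC90 came from nonlinear regression of Day 3 minus Day 0 fluorescence (544/612 nm), correcting for input parasites. Final compound concentrations spanned 5 nM–5 uM on Td Tomato T. cruzi-infected Vero cells, 72 h at 37 °C.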

For `Cc1c(C(=O)N[C@H](C(=O)OCc2ccc(C(F)(F)F)nc2)C(C)C)ccc2c1B(O)OC2` [Example 6-168, (6-(Trifluoromethyl)pyridin-3-yl)methyl (1-hydroxy-7-methyl-1,3-dihydrobenzo[c][1,2]oxaborole-6-carbonyl)-L-valinate], the IC50 in test [1] is below 0.5 nM; in test [2], at most 20 nM.
`Cc1c(C(=O)N[C@H](C(=O)OCc2cnccn2)C(C)C)ccc2c1B(O)OC2` [Example 6-186, Pyrazin-2-ylmethyl (1-hydroxy-7-methyl-1,3-dihydrobenzo[c][1,2]oxaborole-6-carbonyl)-L-valinate]: the IC50 in test [1] was in the range of 0.51 to 9.99 nM; in test [2] it was 21 to 999 nM.
For `Cc1c(C(=O)N[C@H](C(=O)OCC2CCC(F)(F)CC2)C(C)C)ccc2c1B(O)OC2` [Example 6-154, (4,4-Difluorocyclohexyl)methyl (1-hydroxy-7-methyl-1,3-dihydrobenzo[c][1,2]oxaborole-6-carbonyl)-L-valinate], the IC50 is below 0.5 nM in test [1] and at most 20 nM in test [2].
With `Cc1c(C(=O)N[C@H](C(=O)OCc2ccc(CN3CCCC3)cc2)C(C)C)ccc2c1B(O)OC2` [Example 6-131, 4-(Pyrrolidin-1-ylmethyl)benzyl (1-hydroxy-7-methyl-1,3-dihydrobenzo[c][1,2]oxaborole-6-carbonyl)-L-valinate], the results for the IC50 in test [1] and in test [2] were below 0.5 nM and 21 to 999 nM, respectively.
Consider `Cc1c(C(=O)N[C@H](C(=O)OCc2cncc(N3CCOCC3)n2)C(C)C)ccc2c1B(O)OC2` [Example 6-193, (6-morpholinopyrazin-2-yl)methyl (1-hydroxy-7-methyl-1,3-dihydrobenzo[c][1,2]oxaborole-6-carbonyl)-L-valinate], for which the IC50 in test [1] was below 0.5 nM; in test [2], at most 20 nM.
Regarding `CC(C)[C@H](NC(=O)c1ccc2c(c1F)B(O)OC2)C(=O)OCc1ccc(F)cc1` [Example 6-036, 4-Fluorobenzyl (7-fluoro-1-hydroxy-1,3-dihydrobenzo[c][1,2]oxaborole-6-carbonyl)-L-valinate], the IC50 was in the range of 10 to 5000 nM in test [1] and 21 to 999 nM in test [2].
As to `Cc1c(C(=O)N[C@H](C(=O)OCc2ccc(CN3CCOCC3)cc2)C(C)C)ccc2c1B(O)OC2` [Example 6-130, 4-(Morpholinomethyl)benzyl (1-hydroxy-7-methyl-1,3-dihydrobenzo[c][1,2]oxaborole-6-carbonyl)-L-valinate], the IC50 in test [1] is below 0.5 nM; in test [2], 21 to 999 nM.
With `Cc1c(C(=O)N[C@H](C(=O)OCc2ccccc2)C(C)C)ccc2c1B(O)OC2` [Example 6-038, Benzyl (1-hydroxy-7-methyl-1,3-dihydrobenzo[c][1,2]oxaborole-6-carbonyl)-L-valinate], the IC50 was below 0.5 nM in test [1] and at most 20 nM in test [2].
On to `CC(C)[C@H](NC(=O)c1ccc2c(c1)B(O)OC2)C(=O)OCc1ccc(F)cc1` [Example 6-030, 4-Fluorobenzyl (1-hydroxy-1,3-dihydrobenzo[c][1,2]oxaborole-6-carbonyl)-L-valinate], for which the IC50 in test [1] lay within 0.51 to 9.99 nM; in test [2], 21 to 999 nM.
`Cc1c(C(=O)N[C@H](C(=O)OC2CCCCC2)C(C)C)ccc2c1B(O)OC2` [Example 6-133, Cyclohexyl (1-hydroxy-7-methyl-1,3-dihydrobenzo[c][1,2]oxaborole-6-carbonyl)-L-valinate]: the values for the IC50 in test [1] and in test [2] were below 0.5 nM and at most 20 nM, respectively.
For the molecule `CC(C)c1c(C(=O)N[C@H](C(=O)OCc2ccccc2)C(C)C)ccc2c1B(O)OC2` [Example 6-063, Benzyl (1-hydroxy-7-isopropyl-1,3-dihydrobenzo[c][1,2]oxaborole-6-carbonyl)-L-valinate], the IC50 in test [1] was 0.51 to 9.99 nM; in test [2] it was at least 1000 nM.
Regarding `CCCc1c(C(=O)N[C@H](C(=O)OCc2ccccc2)C(C)C)ccc2c1B(O)OC2` [Example 6-065, Benzyl (1-hydroxy-7-propyl-1,3-dihydrobenzo[c][1,2]oxaborole-6-carbonyl)-L-valinate], the values for the IC50 in test [1] and in test [2] were 0.51 to 9.99 nM and 21 to 999 nM, respectively.
As to `Cc1c(C(=O)N[C@H](C(=O)OCCC(C)(C)O)C(C)C)ccc2c1B(O)OC2` [Example 6-209, 3-hydroxy-3-methylbutyl (1-hydroxy-7-methyl-1,3-dihydrobenzo[c][1,2]oxaborole-6-carbonyl)-L-valinate], the results for the IC50 in test [1] and in test [2] were 0.51 to 9.99 nM and 21 to 999 nM, respectively.
As for `Cc1c(C(=O)N[C@H](C(=O)OCc2cccc(OC(F)(F)F)c2)C(C)C)ccc2c1B(O)OC2` [Example 6-055, 3-Trifluoromethoxybenzyl (1-hydroxy-7-methyl-1,3-dihydrobenzo[c][1,2]oxaborole-6-carbonyl)-L-valinate], the IC50 in test [1] is below 0.5 nM; in test [2], at most 20 nM.
`Cc1c(C(=O)N[C@H](C(=O)O[C@H]2CCOC2)C(C)C)ccc2c1B(O)OC2` [Example 6-140, (S)-Tetrahydrofuran-3-yl (1-hydroxy-7-methyl-1,3-dihydrobenzo[c][1,2]oxaborole-6-carbonyl)-L-valinate]: the values for the IC50 in test [1] and in test [2] were 0.51 to 9.99 nM and 21 to 999 nM, respectively.
As for `Cc1c(C(=O)N[C@H](C(=O)OC2CCC(F)(F)CC2)C(C)C)ccc2c1B(O)OC2` [Example 6-155, 4,4-Difluorocyclohexyl (1-hydroxy-7-methyl-1,3-dihydrobenzo[c][1,2]oxaborole-6-carbonyl)-L-valinate], the results for the IC50 in test [1] and in test [2] were below 0.5 nM and at most 20 nM, respectively.
In the case of `CC[S+]([O-])c1ccc(COC(=O)[C@@H](NC(=O)c2ccc3c(c2C)B(O)OC3)C(C)C)cc1` (stereo partly drawn) [Example 6-094, 4-(Ethylsulfinyl)benzyl (1-hydroxy-7-methyl-1,3-dihydrobenzo[c][1,2]oxaborole-6-carbonyl)-L-valinate], the IC50 in test [1] was in the range of 0.51 to 9.99 nM; in test [2], 21 to 999 nM.
The like results for `Cc1c(C(=O)N[C@H](C(=O)OCc2cc(F)cc(F)c2)C(C)(C)O)ccc2c1B(O)OC2` [Example 6-099, 3,5-Difluorobenzyl (S)-3-hydroxy-2-(1-hydroxy-7-methyl-1,3-dihydrobenzo[c][1,2]oxaborole-6-carboxamido)-3-methylbutanoate] were, in that order, below 0.5 nM and 21 to 999 nM.
With `CCc1c(C(=O)N[C@H](C(=O)OCc2ccccc2)C(C)C)ccc2c1B(O)OC2` [Example 6-053, Benzyl (7-ethyl-1-hydroxy-1,3-dihydrobenzo[c][1,2]oxaborole-6-carbonyl)-L-valinate], the values for the IC50 in test [1] and in test [2] were below 0.5 nM and 21 to 999 nM, respectively.
In the case of `Cc1c(C(=O)N[C@H](C(=O)OCc2ccc(NS(C)(=O)=O)cc2)C(C)C)ccc2c1B(O)OC2` [Example 6-075, 4-(Methylsulfonamido)benzyl (1-hydroxy-7-methyl-1,3-dihydrobenzo[c][1,2]oxaborole-6-carbonyl)-L-valinate], the IC50 in test [1] was 10 to 5000 nM; in test [2], at least 1000 nM.
The like results for `Cc1c(C(=O)N[C@H](C(=O)O[C@@H]2CCOC2)C(C)C)ccc2c1B(O)OC2` [Example 6-141, (R)-Tetrahydrofuran-3-yl (1-hydroxy-7-methyl-1,3-dihydrobenzo[c][1,2]oxaborole-6-carbonyl)-L-valinate] were, in that order, below 0.5 nM and 21 to 999 nM.
The like results for `CC(C)[C@H](NC(=O)c1ccc2c(c1)B(O)OC2)C(=O)O[C@H](C)c1ccccc1` [Example 6-020, (R)-1-Phenylethyl (1-hydroxy-1,3-dihydrobenzo[c][1,2]oxaborole-6-carbonyl)-L-valinate] were, in that order, 10 to 5000 nM and at least 1000 nM.
Take `CCOc1c(C(=O)N[C@H](C(=O)OCc2ccc(F)cc2)C(C)C)ccc2c1B(O)OC2` [Example 6-196, 4-Fluorobenzyl (7-ethoxy-1-hydroxy-1,3-dihydrobenzo[c][1,2]oxaborole-6-carbonyl)-L-valinate]: the IC50 in test [1] was 0.51 to 9.99 nM; in test [2], at least 1000 nM.
On to `Cc1c(C(=O)N[C@H](C(=O)OCc2cc(F)c(F)c(F)c2)C(C)C)ccc2c1B(O)OC2` [Example 6-100, 3,4,5-Trifluorobenzyl (1-hydroxy-7-methyl-1,3-dihydrobenzo[c][1,2]oxaborole-6-carbonyl)-L-valinate], for which the IC50 in test [1] was below 0.5 nM; in test [2] it was at most 20 nM.
On the same counts, the results for `Cc1c(C(=O)N[C@H](C(=O)OCc2ccc([S+](C)[O-])cc2)C(C)C)ccc2c1B(O)OC2` (stereo partly drawn) [Example 6-090, 4-(Methylsulfinyl)benzyl (1-hydroxy-7-methyl-1,3-dihydrobenzo[c][1,2]oxaborole-6-carbonyl)-L-valinate] are 0.51 to 9.99 nM and 21 to 999 nM.
Consider `Cc1c(C(=O)N[C@H](C(=O)OCc2ccc(S(=O)(=O)N3CCN(C)CC3)cc2)C(C)C)ccc2c1B(O)OC2` [Example 6-085, 4-((4-Methylpiperazin-1-yl)sulfonyl)benzyl (1-hydroxy-7-methyl-1,3-dihydrobenzo[c][1,2]oxaborole-6-carbonyl)-L-valinate], for which the IC50 in test [1] was in the range of 0.51 to 9.99 nM; in test [2] it was 21 to 999 nM.
Consider `Cc1c(C(=O)N[C@H](C(=O)OCC2CCCO2)C(C)C)ccc2c1B(O)OC2` (stereo partly drawn) [Example 6-210, (tetrahydrofuran-2-yl)methyl (1-hydroxy-7-methyl-1,3-dihydrobenzo[c][1,2]oxaborole-6-carbonyl)-L-valinate], for which the IC50 was below 0.5 nM in test [1] and at most 20 nM in test [2].
On to `C[C@H](NC(=O)c1ccc2c(c1)B(O)OC2)C(=O)O` [Example 6-164, (1-Hydroxy-1,3-dihydrobenzo[c][1,2]oxaborole-6-carbonyl)-L-alanine], for which the IC50 in test [1] was 10 to 5000 nM; in test [2], at least 1000 nM.
